Test results reported in PubChem BioAssay (NCI).
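Results reflect a 48-hour exposure of cells in 96-well plates to compound at five concentrations. GI50 marks 50% less growth. TGI: concentration producing complete growth inhibition.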

Key:
Experiment in all cases: NCI-60 cell line screen, 48 h
OVCAR-5 ovarian = system: OVCAR-5 ovarian
UO-31 renal = system: UO-31 renal
HCC-2998 colon = system: HCC-2998 colon
IGROV1 ovarian = system: IGROV1 ovarian
786-0 renal = system: 786-0 renal
SK-MEL-28 melanoma = system: SK-MEL-28 melanoma
BT-549 breast = system: BT-549 breast
DU-145 prostate = system: DU-145 prostate
KM12 colon = system: KM12 colon
SW-620 colon = system: SW-620 colon
SF-539 CNS = system: SF-539 CNS
LOX IMVI melanoma = system: LOX IMVI melanoma
UACC-62 melanoma = system: UACC-62 melanoma
COLO 205 colon = system: COLO 205 colon
UACC-257 melanoma = system: UACC-257 melanoma
CCRF-CEM leukemia = system: CCRF-CEM leukemia
HOP-62 NSCLC = system: HOP-62 NSCLC
MOLT-4 leukemia = system: MOLT-4 leukemia
K-562 leukemia = system: K-562 leukemia
PC-3 prostate = system: PC-3 prostate
A498 renal = system: A498 renal
MCF7 breast = system: MCF7 breast
RPMI-8226 leukemia = system: RPMI-8226 leukemia
U251 CNS = system: U251 CNS
HT29 colon = system: HT29 colon
HS 578T breast = system: HS 578T breast
EKVX NSCLC = system: EKVX NSCLC
HOP-92 NSCLC = system: HOP-92 NSCLC
SR leukemia = system: SR leukemia
OVCAR-4 ovarian = system: OVCAR-4 ovarian
OVCAR-8 ovarian = system: OVCAR-8 ovarian
NCI-H23 lung = system: NCI-H23 lung
MDA-MB-231 breast = system: MDA-MB-231 breast
A549 NSCLC = system: A549 NSCLC
OVCAR-3 ovarian = system: OVCAR-3 ovarian
NCI-H522 lung = system: NCI-H522 lung
HCT-116 colon = system: HCT-116 colon
NCI-H226 lung = system: NCI-H226 lung
HCT-15 colon = system: HCT-15 colon
MDA-MB-435 = system: MDA-MB-435
NCI-H460 lung = system: NCI-H460 lung
HL-60(TB) leukemia = system: HL-60(TB) leukemia
ACHN renal = system: ACHN renal
NCI/ADR-RES ovarian = system: NCI/ADR-RES ovarian
SNB-19 CNS = system: SNB-19 CNS
MALME-3M melanoma = system: MALME-3M melanoma
SK-OV-3 ovarian = system: SK-OV-3 ovarian
CAKI-1 renal = system: CAKI-1 renal
SN12C renal = system: SN12C renal
SK-MEL-5 melanoma = system: SK-MEL-5 melanoma
SF-268 CNS = system: SF-268 CNS
TK-10 renal = system: TK-10 renal

COc1cc(C(=O)c2cnc(-c3ccc4cc[nH]c4c3)[nH]2)cc(OC)c1OC
GI50 (OVCAR-5 ovarian): 225 nM
TGI (OVCAR-5 ovarian): 23900 nM
GI50 (UO-31 renal): 153 nM
TGI (UO-31 renal): 5110 nM
GI50 (HCC-2998 colon): 117 nM
TGI (HCC-2998 colon): 4020 nM
GI50 (IGROV1 ovarian): 99.7 nM
TGI (IGROV1 ovarian): 16700 nM
GI50 (786-0 renal): 41.9 nM
TGI (786-0 renal): 2340 nM
GI50 (SK-MEL-28 melanoma): 454 nM
TGI (SK-MEL-28 melanoma): 16000 nM
GI50 (BT-549 breast): 63.1 nM
TGI (BT-549 breast): 3120 nM
GI50 (DU-145 prostate): 36.3 nM
TGI (DU-145 prostate): 11100 nM
GI50 (KM12 colon): 31.3 nM
TGI (KM12 colon): 2160 nM
GI50 (SW-620 colon): 39.8 nM
TGI (SW-620 colon): 21700 nM
GI50 (SF-539 CNS): 21.4 nM
TGI (SF-539 CNS): 62.3 nM
GI50 (LOX IMVI melanoma): 105 nM
TGI (LOX IMVI melanoma): 1980 nM
GI50 (UACC-62 melanoma): 24.4 nM
TGI (UACC-62 melanoma): 13800 nM
GI50 (COLO 205 colon): 27.7 nM
TGI (COLO 205 colon): 105 nM
GI50 (UACC-257 melanoma): 2030 nM
TGI (UACC-257 melanoma): 17400 nM
GI50 (CCRF-CEM leukemia): 37.4 nM
TGI (CCRF-CEM leukemia): > 44600 nM
GI50 (HOP-62 NSCLC): 35.4 nM
TGI (HOP-62 NSCLC): 6500 nM
GI50 (MOLT-4 leukemia): 59.7 nM
TGI (MOLT-4 leukemia): 15600 nM
GI50 (K-562 leukemia): 17.3 nM
TGI (K-562 leukemia): 8740 nM
GI50 (PC-3 prostate): 28.6 nM
TGI (PC-3 prostate): 15100 nM
GI50 (A498 renal): 13.6 nM
TGI (A498 renal): 78.8 nM
GI50 (MCF7 breast): 37.6 nM
TGI (MCF7 breast): 11400 nM
GI50 (RPMI-8226 leukemia): 41.7 nM
TGI (RPMI-8226 leukemia): 2770 nM
GI50 (U251 CNS): 39.3 nM
TGI (U251 CNS): 11000 nM
GI50 (HT29 colon): 31.6 nM
TGI (HT29 colon): 108 nM
GI50 (HS 578T breast): 46.1 nM
TGI (HS 578T breast): > 86900 nM
GI50 (EKVX NSCLC): 72.1 nM
TGI (EKVX NSCLC): 19700 nM
GI50 (HOP-92 NSCLC): 632 nM
TGI (HOP-92 NSCLC): 6160 nM
GI50 (SR leukemia): 30.2 nM
TGI (SR leukemia): 23800 nM
GI50 (OVCAR-4 ovarian): 993 nM
TGI (OVCAR-4 ovarian): 20000 nM
GI50 (OVCAR-8 ovarian): 48.4 nM
TGI (OVCAR-8 ovarian): 11500 nM
GI50 (NCI-H23 lung): 57.5 nM
TGI (NCI-H23 lung): 21000 nM
GI50 (MDA-MB-231 breast): 60.9 nM
TGI (MDA-MB-231 breast): 1440 nM
GI50 (A549 NSCLC): 52.3 nM
TGI (A549 NSCLC): 11700 nM
GI50 (OVCAR-3 ovarian): 19.5 nM
TGI (OVCAR-3 ovarian): 47.7 nM
GI50 (NCI-H522 lung): < 12.8 nM
TGI (NCI-H522 lung): 91.3 nM
GI50 (HCT-116 colon): 33.2 nM
TGI (HCT-116 colon): 2230 nM
GI50 (NCI-H226 lung): 117 nM
TGI (NCI-H226 lung): 9000 nM
GI50 (HCT-15 colon): 38.1 nM
TGI (HCT-15 colon): 4960 nM
TGI (MDA-MB-435): 24.5 nM
GI50 (NCI-H460 lung): 37.6 nM
TGI (NCI-H460 lung): 11500 nM
GI50 (HL-60(TB) leukemia): 22.4 nM
TGI (HL-60(TB) leukemia): 53.5 nM
GI50 (ACHN renal): 97.3 nM
TGI (ACHN renal): 6110 nM
GI50 (NCI/ADR-RES ovarian): 37.1 nM
TGI (NCI/ADR-RES ovarian): 56000 nM
GI50 (SNB-19 CNS): 40.9 nM
TGI (SNB-19 CNS): 13700 nM
GI50 (MALME-3M melanoma): 1610 nM
TGI (MALME-3M melanoma): 9890 nM
GI50 (SK-OV-3 ovarian): 35.8 nM
TGI (SK-OV-3 ovarian): 1930 nM
GI50 (CAKI-1 renal): 50.3 nM
TGI (CAKI-1 renal): 4200 nM
GI50 (SN12C renal): 66 nM
TGI (SN12C renal): 14700 nM
GI50 (SK-MEL-5 melanoma): 38.5 nM
TGI (SK-MEL-5 melanoma): 389 nM
GI50 (SF-268 CNS): 80.8 nM
TGI (SF-268 CNS): 7190 nM
GI50 (TK-10 renal): 340 nM
TGI (TK-10 renal): 12400 nM
